Data as given in patent publication US20020065219A1, “Water soluble thiazolyl peptide derivatives” (priority 2000, published 2002).
Values after ≈ are worked out from the molar mass of the structure shown. Read-outs that look alike come from different tables or passages of the source.

Legend:
Assay in all cases: MIC, broth micro dilution assay (NCCLS)
Type in all cases: cell-based
[1] = system: Staphylococcus aureus A15090
[2] = system: Streptococcus pneumoniae A28272
[3] = system: Enterococcus faecalis A20688
[4] = Mueller-Hinton medium, 35° C., 18 hours
[5] = 50% Mueller-Hinton medium and 50% Todd Hewitt medium, 35° C., 18 hours

| SMILES | MIC (μg/mL) against Staphylococcus aureus A15090 [1, 4] [µg/mL] | MIC (μg/mL) against Streptococcus pneumoniae A28272 [2, 5] [µg/mL] | MIC (μg/mL) against Enterococcus faecalis A20688 [3, 4] [µg/mL] | other results |
| --- | --- | --- | --- | --- |
| CO/C(C)=C1/NC(=O)C(C(C)O)NC(=O)c2csc(n2)-c2cc(O)c(-c3nc(C(=O)NC(CN4CCN(CCN(C)C)CC4)C(N)=O)cs3)nc2-c2csc(n2)C2COC(=O)c3c4c5c(cccc5n3O)COC(=O)C(O[C@H]3C[C@](C)(O)[C@H](N(C)C)[C@H](C)O3)C(OC4)C(NC(=O)c3csc1n3)c1nc(cs1)C(=O)N2 (stereo partly drawn) [Example 54] | – | – | – | MIC (μg/mL) against Staphylococcus aureus A15090 [1]: 0.5 µg/mL (≈ 0.314 µM); MIC (μg/mL) against Streptococcus pneumoniae A28272 [2]: 0.25 µg/mL (≈ 0.157 µM); MIC (μg/mL) against Enterococcus faecalis A20688 [3]: 0.125 µg/mL (≈ 0.0784 µM) |
| CCNCCN(CC)CC(NC(=O)c1csc(-c2nc3c(cc2O)-c2nc(cs2)C(=O)NC(C(C)O)C(=O)N/C(=C(\C)OC)c2nc(cs2)C(=O)NC2c4nc(cs4)C(=O)NC(COC(=O)c4c5c6c(cccc6n4O)COC(=O)C(O[C@H]4C[C@](C)(O)[C@H](N(C)C)[C@H](C)O4)C2OC5)c2nc-3cs2)n1)C(N)=O (stereo partly drawn) [Example 25] | 1.0 (≈ 0.644 µM) | 0.0005 (≈ 0.000322 µM) | 2.0 (≈ 1.29 µM) | – |
| CNCCN(C)CC(NC(=O)c1csc(-c2nc3c(cc2O)-c2nc(cs2)C(=O)NC(C(C)O)C(=O)N/C(=C(\C)OC)c2nc(cs2)C(=O)NC2c4nc(cs4)C(=O)NC(COC(=O)c4c5c6c(cccc6n4O)COC(=O)C(O[C@H]4C[C@](C)(O)[C@H](N(C)C)[C@H](C)O4)C2OC5)c2nc-3cs2)n1)C(N)=O (stereo partly drawn) [Example 23] | 0.06 (≈ 0.0393 µM) | 0.001 (≈ 0.000655 µM) | 0.5 (≈ 0.328 µM) | – |
| CO/C(C)=C1/NC(=O)C(C(C)O)NC(=O)c2csc(n2)-c2cc(O)c(-c3nc(C(=O)NC(CSCCc4cnccn4)C(N)=O)cs3)nc2-c2csc(n2)C2COC(=O)c3c4c5c(cccc5n3O)COC(=O)C(O[C@H]3C[C@](C)(O)[C@H](N(C)C)[C@H](C)O3)C(OC4)C(NC(=O)c3csc1n3)c1nc(cs1)C(=O)N2 (stereo partly drawn) [Example 62] | 0.125 (≈ 0.0792 µM) | 0.015 (≈ 0.00951 µM) | 0.25 (≈ 0.158 µM) | – |
| CO/C(C)=C1/NC(=O)C(C(C)O)NC(=O)c2csc(n2)-c2cc(O)c(-c3nc(C(=O)NC(CNCCCCN)C(N)=O)cs3)nc2-c2csc(n2)C2COC(=O)c3c4c5c(cccc5n3O)COC(=O)C(O[C@H]3C[C@](C)(O)[C@H](N(C)C)[C@H](C)O3)C(OC4)C(NC(=O)c3csc1n3)c1nc(cs1)C(=O)N2 (stereo partly drawn) [Example 11] | 2.0 (≈ 1.31 µM) | 0.5 (≈ 0.328 µM) | 8.0 (≈ 5.24 µM) | – |
| CNC(=O)N(C)CC(NC(=O)c1csc(-c2nc3c(cc2O)-c2nc(cs2)C(=O)NC(C(C)O)C(=O)N/C(=C(\C)OC)c2nc(cs2)C(=O)NC2c4nc(cs4)C(=O)NC(COC(=O)c4c5c6c(cccc6n4O)COC(=O)C(OC4CC(C)(O)C(N(C)C)C(C)O4)C2OC5)c2nc-3cs2)n1)C(N)=O (stereo not drawn) [Example 109] | 0.06 (≈ 0.0393 µM) | 0.06 (≈ 0.0393 µM) | 0.5 (≈ 0.328 µM) | – |
| CO/C(C)=C1/NC(=O)C(C(C)O)NC(=O)c2csc(n2)-c2cc(O)c(-c3nc(C(=O)NC(CN4CCN(C(C)=O)CC4)C(N)=O)cs3)nc2-c2csc(n2)C2COC(=O)c3c4c5c(cccc5n3O)COC(=O)C(O[C@H]3C[C@](C)(O)[C@H](N(C)C)[C@H](C)O3)C(OC4)C(NC(=O)c3csc1n3)c1nc(cs1)C(=O)N2 (stereo partly drawn) [Example 21] | 0.5 (≈ 0.319 µM) | 0.03 (≈ 0.0192 µM) | 2.0 (≈ 1.28 µM) | – |
| COC(C)=C1NC(=O)C(C(C)O)NC(=O)c2csc(n2)-c2cc(O)c(-c3nc(C(=O)NC(CSCC(=O)O)C(N)=O)cs3)nc2-c2csc(n2)C2COC(=O)c3c4c5c(cccc5n3O)COC(=O)C(O)C(OC4)C(NC(=O)c3csc1n3)c1nc(cs1)C(=O)N2 (stereo not drawn) [Example 95] | 0.5 (≈ 0.368 µM) | 0.03 (≈ 0.0221 µM) | 4.0 (≈ 2.94 µM) | – |
| CO/C(C)=C1/NC(=O)C(C(C)O)NC(=O)c2csc(n2)-c2cc(O)c(-c3nc(C(=O)NC(CN(C)CCCn4ccnc4)C(N)=O)cs3)nc2-c2csc(n2)C2COC(=O)c3c4c5c(cccc5n3O)COC(=O)C(O[C@H]3C[C@](C)(O)[C@H](N(C)C)[C@H](C)O3)C(OC4)C(NC(=O)c3csc1n3)c1nc(cs1)C(=O)N2 (stereo partly drawn) [Example 41] | 0.5 (≈ 0.317 µM) | 0.125 (≈ 0.0793 µM) | 0.5 (≈ 0.317 µM) | – |
| COC(C)=C1NC(=O)C(C(C)O)NC(=O)c2csc(n2)-c2cc(O)c(-c3nc(C(=O)NC(CNC(CO)Cc4c[nH]cn4)C(N)=O)cs3)nc2-c2csc(n2)C2COC(=O)c3c4c5c(cccc5n3O)COC(=O)C(OC3CC(C)(O)C(N(C)C)C(C)O3)C(OC4)C(NC(=O)c3csc1n3)c1nc(cs1)C(=O)N2 (stereo not drawn) [Example 66] | 2.0 (≈ 1.27 µM) | 2.0 (≈ 1.27 µM) | 16 (≈ 10.1 µM) | – |
| CO/C(C)=C1/NC(=O)C(C(C)O)NC(=O)c2csc(n2)-c2cc(O)c(-c3nc(C(=O)NC(CN(C)CCN4CCCCC4)C(N)=O)cs3)nc2-c2csc(n2)C2COC(=O)c3c4c5c(cccc5n3O)COC(=O)C(O[C@H]3C[C@](C)(O)[C@H](N(C)C)[C@H](C)O3)C(OC4)C(NC(=O)c3csc1n3)c1nc(cs1)C(=O)N2 (stereo partly drawn) [Example 30] | – | – | – | MIC (μg/mL) against Staphylococcus aureus A15090 [1]: 0.125 µg/mL (≈ 0.0791 µM); MIC (μg/mL) against Streptococcus pneumoniae A28272 [2]: 0.03 µg/mL (≈ 0.019 µM); MIC (μg/mL) against Enterococcus faecalis A20688 [3]: 1.0 µg/mL (≈ 0.633 µM) |
| COC(C)=C1NC(=O)C(C(C)O)NC(=O)c2csc(n2)-c2cc(O)c(-c3nc(C(=O)NC(CN4CCCC4C(O)C(C)C)C(N)=O)cs3)nc2-c2csc(n2)C2COC(=O)c3c4c5c(cccc5n3O)COC(=O)C(OC3CC(C)(O)C(N(C)C)C(C)O3)C(OC4)C(NC(=O)c3csc1n3)c1nc(cs1)C(=O)N2 (stereo not drawn) [Example 81] | 0.125 (≈ 0.0791 µM) | 0.007 (≈ 0.00443 µM) | 0.125 (≈ 0.0791 µM) | – |
| CO/C(C)=C1/NC(=O)C(C(C)O)NC(=O)c2csc(n2)-c2cc(O)c(-c3nc(C(=O)NC(CNCc4nn[nH]n4)C(N)=O)cs3)nc2-c2csc(n2)C2COC(=O)c3c4c5c(cccc5n3O)COC(=O)C(O[C@H]3C[C@](C)(O)[C@H](N(C)C)[C@H](C)O3)C(OC4)C(NC(=O)c3csc1n3)c1nc(cs1)C(=O)N2 (stereo partly drawn) [Example 50] | – | – | – | MIC (μg/mL) against Staphylococcus aureus A15090 [1]: 0.25 µg/mL (≈ 0.163 µM); MIC (μg/mL) against Streptococcus pneumoniae A28272 [2]: 0.25 µg/mL (≈ 0.163 µM); MIC (μg/mL) against Enterococcus faecalis A20688 [3]: 1.0 µg/mL (≈ 0.651 µM) |
| CO/C(C)=C1/NC(=O)C(C(C)O)NC(=O)c2csc(n2)-c2cc(O)c(-c3nc(C(=O)NC(CSCCN(C)C)C(N)=O)cs3)nc2-c2csc(n2)C2COC(=O)c3c4c5c(cccc5n3O)COC(=O)C(O[C@H]3C[C@](C)(O)[C@H](N(C)C)[C@H](C)O3)C(OC4)C(NC(=O)c3csc1n3)c1nc(cs1)C(=O)N2 (stereo partly drawn) [Example 10] | – | – | – | MIC ([1]; Staphylococcus aureus, A15090, 18 h, read-out: MIC (μg/mL) against Staphylococcus aureus A15090): 0.125 µg/mL (≈ 0.081 µM); MIC ([2]; Streptococcus pneumoniae, A28272, 18 h, read-out: MIC (μg/mL) against Streptococcus pneumoniae A28272): 0.015 µg/mL (≈ 0.00972 µM); MIC ([3]; Enterococcus faecalis, A20688, 18 h, read-out: MIC (μg/mL) against Enterococcus faecalis A20688): 0.25 µg/mL (≈ 0.162 µM) |
| COC(C)=C1NC(=O)C(C(C)O)NC(=O)c2csc(n2)-c2cc(O)c(-c3nc(C(=O)NC(CSCC(NC(C)=O)C(=O)O)C(N)=O)cs3)nc2-c2csc(n2)C2COC(=O)c3c4c5c(cccc5n3O)COC(=O)C(OC3CC(C)(O)C(N(C)C)C(C)O3)C(OC4)C(NC(=O)c3csc1n3)c1nc(cs1)C(=O)N2 (stereo not drawn) [Example 43] | 2.0 (≈ 1.25 µM) | 0.125 (≈ 0.0781 µM) | 8.0 (≈ 5 µM) | – |
| CO/C(C)=C1/NC(=O)C(C(C)O)NC(=O)c2csc(n2)-c2cc(O)c(-c3nc(C(=O)NC(CSC4CN5CCC4CC5)C(N)=O)cs3)nc2-c2csc(n2)C2COC(=O)c3c4c5c(cccc5n3O)COC(=O)C(O[C@H]3C[C@](C)(O)[C@H](N(C)C)[C@H](C)O3)C(OC4)C(NC(=O)c3csc1n3)c1nc(cs1)C(=O)N2 (stereo partly drawn) [Example 60] | – | – | – | MIC (μg/mL) against Staphylococcus aureus A15090 [1]: 2.0 µg/mL (≈ 1.27 µM); MIC (μg/mL) against Streptococcus pneumoniae A28272 [2]: 0.5 µg/mL (≈ 0.316 µM); MIC (μg/mL) against Enterococcus faecalis A20688 [3]: 2.0 µg/mL (≈ 1.27 µM) |
| COCC(Cn1ccnc1)SCC(NC(=O)c1csc(-c2nc3c(cc2O)-c2nc(cs2)C(=O)NC(C(C)O)C(=O)NC(=C(C)OC)c2nc(cs2)C(=O)NC2c4nc(cs4)C(=O)NC(COC(=O)c4c5c6c(cccc6n4O)COC(=O)C(OC4CC(C)(O)C(N(C)C)C(C)O4)C2OC5)c2nc-3cs2)n1)C(N)=O (stereo not drawn) [Example 80] | 0.25 (≈ 0.155 µM) | 0.03 (≈ 0.0186 µM) | 0.125 (≈ 0.0776 µM) | – |
| CO/C(C)=C1/NC(=O)C(C(C)O)NC(=O)c2csc(n2)-c2cc(O)c(-c3nc(C(=O)NC(CSCC(=O)OCc4ccccc4)C(N)=O)cs3)nc2-c2csc(n2)C2COC(=O)c3c4c5c(cccc5n3O)COC(=O)C(O[C@H]3C[C@](C)(O)[C@H](N(C)C)[C@H](C)O3)C(OC4)C(NC(=O)c3csc1n3)c1nc(cs1)C(=O)N2 (stereo partly drawn) [Example 34] | 1.0 (≈ 0.617 µM) | 0.001 (≈ 0.000617 µM) | 1.0 (≈ 0.617 µM) | – |
| COC[C@@H]1CCCN1CC(NC(=O)c1csc(-c2nc3c(cc2O)-c2nc(cs2)C(=O)NC(C(C)O)C(=O)N/C(=C(\C)OC)c2nc(cs2)C(=O)NC2c4nc(cs4)C(=O)NC(COC(=O)c4c5c6c(cccc6n4O)COC(=O)C(O[C@H]4C[C@](C)(O)[C@H](N(C)C)[C@H](C)O4)C2OC5)c2nc-3cs2)n1)C(N)=O (stereo partly drawn) [Example 63] | 0.125 (≈ 0.0805 µM) | 0.03 (≈ 0.0193 µM) | 0.25 (≈ 0.161 µM) | – |
| CO/C(C)=C1/NC(=O)C(C(C)O)NC(=O)c2csc(n2)-c2cc(O)c(-c3nc(C(=O)NC(CN(C)CCc4c[nH]cn4)C(N)=O)cs3)nc2-c2csc(n2)C2COC(=O)c3c4c5c(cccc5n3O)COC(=O)C(O[C@H]3C[C@](C)(O)[C@H](N(C)C)[C@H](C)O3)C(OC4)C(NC(=O)c3csc1n3)c1nc(cs1)C(=O)N2 (stereo partly drawn) [Example 56] | – | – | – | MIC (μg/mL) against Staphylococcus aureus A15090 [1]: 0.25 µg/mL (≈ 0.16 µM); MIC (μg/mL) against Streptococcus pneumoniae A28272 [2]: 0.125 µg/mL (≈ 0.08 µM); MIC (μg/mL) against Enterococcus faecalis A20688 [3]: 0.5 µg/mL (≈ 0.32 µM) |
